Like-named read-outs stand apart in the source and are kept apart here.
Legend:
[1] = system: antigens of the VVE virus; set-up: species or system white outbred male mice; conditions: mouse, in vivo
smallpox antigens = system: smallpox antigens; set-up: species or system white outbred male mice; conditions: mouse, in vivo
[2] = system: botulinum toxin of type A; set-up: species or system guinea pigs; conditions: guinea pig, in vivo
[3] = system: botulinum toxin of type A; set-up: species or system white mice; conditions: mouse, in vivo
[4] = system: Herpes simplex virus (HSV) of type 1, US strain; test: Herpetic infection model in irradiated mice, survival after immunization; assay type: in vivo, outbred mice; conditions: for Number of dead animals, % / Number of survived animals, %: 2.5 LD50 s.c.
[5] = system: virus of Venezuelan equine encephalomyelitis, strain Trinidad; set-up: species or system outbred male mice; conditions: mouse, in vivo
[6] = system: Cowpox virus (CP), Pumenok strain; set-up: species or system outbred male mice; conditions: mouse, in vivo
[7] = adjuvant 150 μg/individual i.m. 3, 2, 1 days before

SMILES: Nc1cccc2c([O-])nnc([O-])c12.[Na+].[Na+] [Abidov's adjuvant, sodium salt of 5-amino-1,2,3,4-tetrahydrophthalazine-1,4-dione]
- increase in the level of positive seroconversions compared with animals vaccinated only with VVE [1]: 30%
- increase in the titer of specific anti-smallpox antibodies compared with animals vaccinated with only SLDV (smallpox antigens): 4 times
- Survival rate, M (M − tm − M + tm), % [2]: 0%
- Survival rate, M (M − tm − M + tm), % [3]: 0%
- Number of dead animals, % [4, 7]: 70%
- Number of survived animals, % [4, 7]: 30%
- Number of dead animals, % ([4]; only adjuvant, single dose): 80%
- Number of survived animals, % ([4]; only adjuvant, single dose): 20%
- increase of the effectiveness of IMP ([4]; adjuvant used in immunization schemes with herpetic vaccine): 30%
- survival rate of infected mice [5]: 60-100%
- adjuvant effect in relation to SLDV [6]: not possible to identify a pronounced adjuvant effect
- effect on the formation of specific orthopoxvirus immunity [6]: no negative effect
